In one assay the target is T1, tyrosinase (Agaricus bisporus, UniProt C7FF04).
T1 construct: purchased Sigma-Aldrich
The experiment in a line: Tyrosinase inhibition assay. The format is biochemical. As to the method:
The extracts were assayed by adapting the tyrosinase inhibition method described by Shimizu et al. and modified by Manosroi et al.. […] The experiments were carried out in triplicate. For each concentration, enzyme activity was calculated as a percentage of the velocities compared to that of the assay using buffer without any inhibitor.

Another assay has as its system hyaluronidase. The experiment in a line: Hyaluronidase inhibition assay. The class given is biochemical. The following applies: 100 µM; for increase in hyaluronidase inhibition over phytol: relative to phytol. As to the method: The assay was conducted following the Sigma protocol with minor adjustments. In a microplate, 25 µL of 5 U/mL of hyaluronidase prepared in 20 mM sodium phosphate buffer (pH 7.0) with 77 mM sodium chloride and 0.01% BSA, was pre-incubated with 50 µL of the sample in concentrations ranging from between 0.100 μM and 100 μM for 10 min at 37 °C. Subsequently, the assay was initiated by adding 25 µL hyaluronic acid (0.015 % in 300 mM sodium phosphate, pH 5.35) to the incubation mixture and incubated for an additional 30 min at 37 °C. Undigested hyaluronic acid was precipitated with 200 µL acid albumin solution composed of 0.1 % bovine serum albumin in 24 mM sodium acetate and 79 mM acetic acid (pH 3.75). After standing at room temperature for 10 min, the absorbance of the reaction mixture was measured at 600 nm. The absorbance in the absence of enzymes (blank) served as the reference value for maximum absorbance. Sodium aurothiomalate was used as a control inhibitor. Enzyme activity was verified by a control experiment conducted simultaneously, in which the enzyme was pre-incubated with buffer instead, followed by the assay procedures described above. The inhibitory activity of the test compound was determined as follows:%Inhibition = [1 − (Absblank − Abssample)/(Absblank − Abscontrol)] × 100(4) where Absblank is the absorbance of the reaction without enzyme, Abssample is the absorbance of the extract or standard compound sodium aurothiomalate, and Abscontrol is the absorbance of the enzyme without inhibitor. The IC50 value, which was the sample concentration that inhibited 50% of the enzyme activity, was determined by interpolation from the % hyaluronidase inhibition vs. concentration curve.

For another assay, the system named is collagenase. Kind of assay: Collagenase inhibition assay. The format is biochemical. The following applies: 100 µM; for fold increase in collagenase inhibition over phytol: compared to phytol. As to the method: An adaptation of the method of Mandl et al. was used to determine anti-collagenase activity. The following was added to 2 mL test tubes: 25 μL of collagenase solution (0.8 U/mL); 25 μL TES buffer (50 mM) with 0.36 mM calcium chloride, pH 7.4; and 50 μL of test sample or the reference compound EDTA (with concentrations ranging between 0.100 and 100 μM). The tubes were incubated in a water bath at 37 °C for 20 min. Thereafter, 50 μL FALGPA (1 mM) solution was added to the tubes and further incubated for 60 min at 37 °C. To all tubes, 200 μL of a solution containing equal volumes of a 1.6 mg/mL tin chloride (II) solution in 200 mM citrate buffer, pH 5, and 50 mg/mL ninhydrin solution in DMSO were added. All tubes were placed in a water bath (100 °C) for 5 min and left to cool to room temperature before adding 200 μL of 50% isopropanol to each tube. Contents in the tubes were then transferred to respective wells in 96-well plates. Absorbance was detected at 550 nm. EDTA was used as a control inhibitor. Percentage of collagenase inhibition was calculated as % Collagenase inhibition = [(Abscontrol − Abssample)]/Abscontrol] × 100 (5) where Abscontrol is the absorbance of buffer + collagenase; Abseample is the absorbance of buffer + collagenase + sample/standard.
All assays were carried out in triplicate and results expressed as IC50, i.e., as the concentration yielding 50% of collagenase inhibition, calculated by interpolation from the % collagenase inhibition vs. concentration curve.

The subject of the next assay is elastase. Kind of assay: Elastase inhibition assay. Conditions: 100 µM. The format is biochemical. As to the method: The extracts were assayed by the method described by Ndlovu et al. with some modifications. In brief, 25 μL of elastase enzyme solution (0.3 U/mL), 50 μL of ten serial concentrations of the extracts or fractions (0.100–100 μM dissolved in 100 mM HEPES buffer, pH 7.5 containing no more than 2.5 % DMSO), and 125 μL HEPES buffer were mixed in a 96-well plate and incubated at room temperature for 20 min. Then, 50 μL of N-methoxysuccinyl-Ala-Ala-Pro-Val-p-nitroanilide (1 mM) was added. The enzyme activity was measured at 405 nm in the moment of substrate addition and after 40 min of incubation at 25 °C. N-Methoxysuccinyl-Ala-Ala-Pro-chloromethyl ketone at 0.100–100 μM was used as a positive control. The experiments were carried out in triplicate. For each concentration, enzyme activity was calculated as a percentage of the velocities compared to that of the assay, using buffer without any inhibitor. The IC50 value, which was the sample concentration that inhibited 50% of the enzyme activity, was determined interpolation from the % elastase inhibition vs. concentration curve.

Assay [1] in a line: ABTS radical scavenging assay. The following applies: 100 µM. As to the method: The method of Re et al. was adopted to perform the ABTS radical scavenging assay. The stock solutions included a 7 mM ABTS solution (2,2′-azinobis-(3 ethylbenzothiazoline 6 sulfonic acid)) and a 2.4 mM potassium persulfate solution. The working solution was prepared by mixing the two stock solutions in equal quantities and allowing for them to react for 12–16 h at room temperature in the dark. The solution was then diluted by mixing 1 mL ABTS solution with the amount of methanol necessary to obtain an absorbance of 0.7 at 734 nm. Serial dilutions of studied extracts or reference compound (Trolox) were carried out in 96-well microplates, with concentrations ranging between 0.100 μM and 100 μM in methanol. ABTS solution was then added to the microwells, and after 8 min of incubation, the absorbance was recorded at […]. In each assay, a negative control was prepared in which the same amount of solvent substituted the sample. The percentage of antioxidant activity (% AA) was calculated as %AA = [(Abscontrol − Abssample)/Abscontrol] × 100 (2) where Abscontrol is the absorbance of ABTS radical + methanol; Abssample is the absorbance of ABTS radical + sample/standard.
All assays were carried out in triplicate and results expressed as IC50, i.e., as the concentration yielding 50% scavenging of ABTS, calculated by interpolation from the % AA vs. concentration curve.

Assay [2] can be described thus: DPPH radical scavenging assay. The following applies: 100 µM. As to the method: Antioxidant activity was assayed by the 1,1-diphenyl-2-picryl-hydrazyl (DPPH) radical scavenging assay. Serial dilutions of studied extracts or reference compound (Trolox) were carried out in 96-well microplates, with concentrations ranging between 0.100 μM and 100 μM in methanol. DPPH dissolved in methanol was added to the microwells, yielding a final concentration of 45 µg/mL, and the absorbance at 515 nm was measured after 30 min in the dark. In each assay, a control was prepared in which the same amount of solvent substituted the sample or standard. Percentage of antioxidant activity (% AA) was calculated as %AA = [(Abscontrol − Abssample)/Abscontrol] × 100 (1) where Abscontrol is the absorbance of the control and Abssample is the absorbance of the alga extract or standard. All assays were carried out in triplicate and the results expressed as IC50, i.e., as the concentration yielding 50% scavenging of DPPH, calculated by interpolation from the % AA vs. concentration curve.
On the technique in general: Loss of DPPH colour is used to gauge radical scavenging.

Where [3] appears, read: read-out: IC50 against tyrosinase.

SMILES strings stand for the structures. Read-outs that look alike come from different tables or passages of the source.

T1 sequence (C7FF04 1-392 limits assumed): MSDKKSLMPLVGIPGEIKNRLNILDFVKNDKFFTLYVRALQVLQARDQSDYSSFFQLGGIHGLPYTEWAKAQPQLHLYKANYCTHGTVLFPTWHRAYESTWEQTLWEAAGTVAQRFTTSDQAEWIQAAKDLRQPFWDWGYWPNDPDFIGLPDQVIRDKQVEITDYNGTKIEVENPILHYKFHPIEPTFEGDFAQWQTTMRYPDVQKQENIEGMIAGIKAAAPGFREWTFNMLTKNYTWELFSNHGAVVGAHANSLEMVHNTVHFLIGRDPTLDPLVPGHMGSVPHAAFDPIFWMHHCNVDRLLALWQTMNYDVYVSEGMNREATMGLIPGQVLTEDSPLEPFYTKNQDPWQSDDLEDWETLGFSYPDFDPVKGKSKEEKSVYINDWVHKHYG

Usually IC50 stands for the midpoint of a concentration-inhibition curve. For `C/C(=C\COC(=O)c1ccco1)CCC[C@H](C)CCC[C@H](C)CCCC(C)C` [Compound 1h, Phytyl 2-furoate], the IC50 at tyrosinase (setting [3]) is above 100 µM. In the assay on hyaluronidase, the hyaluronidase inhibition was determined as 36.02% and the “increase in hyaluronidase inhibition over phytol” value is reported as 15–20%. For the same compound, in the assay with collagenase, the collagenase inhibition was found to be 22.37%. This compound also registered an elastase inhibition in the assay with elastase of 28.3%.

On to `COc1ccc(C(=O)OC/C=C(\C)CCC[C@H](C)CCC[C@H](C)CCCC(C)C)cc1` [Compound 1d, Phytyl 4-methoxybenzoate], for which the IC50 on tyrosinase (setting [3]) stood at 27.9 µM. Moreover, the hyaluronidase inhibition in the assay on hyaluronidase turned out to be 22.54%. Further, in assay [1], the “Percentage of ABTS scavenging” value is “about 50%” and the “increase in ABTS antioxidant activity compared to phytol (1)” value (“increase in ABTS antioxidant activity” for short) was determined as 30%. In addition, in the assay on collagenase, the collagenase inhibition turned out to be 49.67% and the “fold increase in collagenase inhibition over phytol” value was 1.56 fold.

Take `C/C(=C\COC(=O)/C=C/c1ccccc1)CCC[C@@H](C)CCC[C@@H](C)CCCC(C)C` (stereo in doubt) [Compound 1f, Phytyl cinnamoate]: at tyrosinase (setting [3]), the IC50 stood at 95.68 ± 0.94 µM. Also, the “Percentage of DPPH scavenging” value in assay [2] is “about 50%”. Also, in assay [1], the “Percentage of ABTS scavenging” value was “about 50%” and the “increase in ABTS antioxidant activity” value came out at 30%.

Take `COc1ccccc1C(=O)OC/C=C(\C)CCC[C@H](C)CCC[C@H](C)CCCC(C)C` [Compound 1b, Phytyl 2-methoxybenzoate]: the concentration for half-maximal inhibition (IC50) at tyrosinase (setting [3]) is 59.62 ± 0.51 µM. Further, the hyaluronidase inhibition with hyaluronidase is reported as 34.74%. The elastase inhibition entry with elastase is “low”.

On to `C/C(=C\COC(=O)c1cccs1)CCC[C@H](C)CCC[C@H](C)CCCC(C)C` [Compound 1i, Phytyl 2-thiophenecarbonoate], for which, on tyrosinase (setting [3]), the IC50 is above 100 µM. Further, the “Percentage of ABTS scavenging” value in assay [1] came to 40.58%. In the assay on collagenase, the collagenase inhibition was found to be 41.68% and the “fold increase in collagenase inhibition over phytol” value is on record as 1.28 fold. The same compound had an elastase inhibition in the assay with elastase of 18.19%.

In the case of `C/C(=C\COC(=O)c1ccc(Cl)cc1)CCC[C@H](C)CCC[C@H](C)CCCC(C)C` [Compound 1e, Phytyl 4-chlorobenzoate], the half-maximal inhibitory concentration (IC50) at tyrosinase (setting [3]) was above 100 µM. In the assay on hyaluronidase, the hyaluronidase inhibition was determined as 14.66%. Also, in assay [2], the “Percentage of DPPH scavenging” value is reported as 11.12%. The “increase in ABTS antioxidant activity” value in assay [1] is 30%. Further, the “fold increase in collagenase inhibition over phytol” value with collagenase is on record as 1.38 fold. In addition, the elastase inhibition in the assay with elastase is listed as 27.78%.

For the compound `C/C(=C\COC(=O)C=Cc1ccc([N+](=O)[O-])cc1)CCC[C@H](C)CCC[C@H](C)CCCC(C)C` [Compound 1g, Phytyl 4-nitrocinnamoate], on tyrosinase (setting [3]), the IC50 is 64.1 ± 0.67 µM. The compound further showed a hyaluronidase inhibition with hyaluronidase of 23.06%. Besides, in assay [2], the “Percentage of DPPH scavenging” value amounted to 37.46%. Besides, the “Percentage of ABTS scavenging” value in assay [1] is reported as 28.74%. In the assay with collagenase, the collagenase inhibition was 41.02% and the “fold increase in collagenase inhibition over phytol” value is 1.28 fold.

`Cc1c(C)c2c(c(C)c1O)CCC(C)(C(=O)O)O2` (stereo not shown) [Trolox, 6-hydroxy-2,5,7,8-tetramethylchroman-2-carboxylic acid, reference compound]: in assay [2], the “Percentage of DPPH scavenging” value was 97.54%.

As to `C/C(=C\COC(=O)c1ccccc1)CCC[C@@H](C)CCC[C@@H](C)CCCC(C)C` (stereo in doubt) [Compound 1a, Phytyl benzoate], on tyrosinase (setting [3]), the half-maximal inhibitory concentration (IC50) came to 34.73 ± 0.1 µM. Further, in the assay with hyaluronidase, the hyaluronidase inhibition is on record as 37.32% and the “increase in hyaluronidase inhibition over phytol” value was 15–20%. Further, the “Percentage of DPPH scavenging” value in assay [2] is 4.75%. The compound also had an elastase inhibition with elastase of 43.28%.

On to `COc1cccc(C(=O)OC/C=C(\C)CCC[C@H](C)CCC[C@H](C)CCCC(C)C)c1` [Compound 1c, Phytyl 3-methoxybenzoate], for which the IC50 at tyrosinase (setting [3]) was determined as 79 ± 0.87 µM. Moreover, in the assay on hyaluronidase, the hyaluronidase inhibition was determined as 40.1% and the “increase in hyaluronidase inhibition over phytol” value stood at 28%. The “fold increase in collagenase inhibition over phytol” value with collagenase is on record as 1.42 fold. In addition, in the assay on elastase, the elastase inhibition entry is listed as “low”.

The compound `CC(=CCO)CCCC(C)CCCC(C)CCCC(C)C` (stereo not shown) [Compound 1, 3,7,11,15-tetramethylhexadec-2-en-1-ol, reference compound] had a half-maximal inhibitory concentration (IC50) on tyrosinase (IC50 against tyrosinase) of 77.5 ± 0.8 µM. Further, the collagenase inhibition in the assay with collagenase worked out at 31.89%. This compound also registered an elastase inhibition in the assay with elastase of 6.4%.

The values above are taken from PMC11510177, “New Phytol Derivatives with Increased Cosmeceutical Potential” (Molecules, 2024).
